From patent US12435294B2, “Prevention of the oxidation of perfumery raw materials and food raw materials” (Firmenich SA, priority 2018, dated 2025)
Values joined by “and” are separate entries in the source; they are usually repeats but may differ in a detail not shown here. Equal entries are not always repeated. Where two headings read alike, the source gives them in different places.

Columns and labels:
[1] = POV reduction in model citrus perfume (mixed citrus oil in 90/10 v/v ethanol/water); details: for Reduction in POV (%): vs untreated; for reduction in POV relative to untreated material: 7 days after addition, 1.0% w/v in model perfume
[2] = POV reduction in autoxidized limonene
Procedure: The vial was shaken once and allowed to stand for 50 minutes. No further treatment was done prior to the POV testing. […] POV before treatment was 65.97 mEq./L, and POV after treatment was 17.21 mEq./L. […] The vial was shaken once and allowed to stand, while being monitored for POV value as a function of time. […] The vial was shaken once and allowed to stand, while being monitored for POV value as a function of time.

[3] = POV reduction in sunflower oil; details: for POV of treated oil / % Reduction in POV: 0.3358 g in 15 mL sunflower oil
[4] = HPLC chemiluminescence peak area of oxidized limonene; details: oxidized limonene 100 μL + 2 mg HDPA
Procedure: Preparation of the Treated Sample: Oxidized limonene (100 μL, with a starting POV of approximately 38 mmol/L) was treated with 2 mg of HDPA (approximately 2 eq of HP). The treated & un-treated limonene samples were allowed to stand on the benchtop under ambient laboratory light at room temperature, and HPLC Chemiluminescence measurements were taken periodically. The same quantity of untreated limonene was prepared in a 2nd vial and monitored similarly to the treated one for comparison.

[5] = Solubility / miscibility observed on addition to the treated material
[6] = 3 min since addition, 250 μL in 20 mL autoxidized limonene
[7] = 20 min since addition, 250 μL in 20 mL autoxidized limonene
[8] = 35 min since addition, 250 μL in 20 mL autoxidized limonene
[9] = 44 min since addition, 250 μL in 20 mL autoxidized limonene
[10] = 66 min since addition, 250 μL in 20 mL autoxidized limonene
[11] = model citrus perfume, DMESi 0.3247 g, 0 d since addition
[12] = model citrus perfume, DMESi 0.3247 g, 0.08 d since addition
[13] = model citrus perfume, DMESi 0.3247 g, 1.29 d since addition
[14] = model citrus perfume, DMESi 0.3247 g, 5 d since addition
[15] = model citrus perfume, DMESi 0.3247 g, 14 d since addition
[16] = 1 day, approximately 150 mg (1.0% w/v) in 15 mL model perfume (Examples 14, 20, 21)
[17] = 2 days, 1.0% w/v in 15 mL model perfume (Examples 14, 20, 21)
[18] = 4 days, 1.0% w/v in 15 mL model perfume (Examples 14, 20, 21)
[19] = 7 days, 1.0% w/v in 15 mL model perfume (Examples 14, 20, 21)
[20] = 40 min since addition, 200 mg in 20 mL autoxidized limonene
[21] = 150 min since addition, 200 mg in 20 mL autoxidized limonene
[22] = 190 min since addition, 200 mg in 20 mL autoxidized limonene
[23] = 2880 min (48 hrs) since addition, 200 mg in 20 mL autoxidized limonene

2-Phospho-L-ascorbic acid trisodium salt [Vc-PTNa]
POV (mmol/L) of treated ([1]; trisodium salt): 12.4 mmol/L and 11.7 mmol/L and 11.57 mmol/L and 10.15 mmol/L and 8.7 mmol/L and 9.22 mmol/L and 9.49 mmol/L

CCC(=O)C(=O)O [2-oxobutyric acid]
POV [2, 6]: 43.680 mEq/L
POV reduction [2, 6]: 34.1%
POV [2, 7]: 22.140 mEq/L
POV reduction [2, 7]: 66.6%
POV [2, 8]: 22.681 mEq/L
POV reduction [2, 8]: 65.8%
POV [2, 9]: 19.968 mEq/L
POV reduction [2, 9]: 69.9%
POV [2, 10]: 21.406 mEq/L
POV reduction [2, 10]: 67.7%
measured POV ([2]; additional 500 μL added (after 250 μL), additional 24 hours, 20 mL autoxidized limonene): 8.577 mEq./L
total reduction ([2]; additional 500 μL added, additional 24 hours): 87.1%

CCCC(=O)C(=O)O [2-oxovaleric acid]
reduction in POV ([2]; 100 μL in 10 mL autoxidized limonene, 50 minutes, vs 65.97 mEq./L before): approximately 74%
POV after Treatment ([2]; 100 μL in 10 mL autoxidized limonene, stood 50 minutes): 17.21 mEq./L
POV ([3]; 30 minutes since addition, 250 μL in 25 mL sunflower oil): 7.38 mmol/L
POV reduction ([3]; 30 minutes, 250 μL in 25 mL sunflower oil, vs most recent untreated POV): 16.2%
POV ([3]; 50 minutes since addition, 250 μL in 25 mL sunflower oil): 7.84 mmol/L
POV reduction ([3]; 50 minutes, 250 μL in 25 mL sunflower oil, vs most recent untreated POV): 11.0%
POV, averaged value (in parentheses) ([3]; 23 hours since addition, 250 μL in 25 mL sunflower oil): 4.81 mmol/L
POV ([3]; 23 hours since addition, 250 μL in 25 mL sunflower oil, single measurements): 4.95 mmol/L and 4.67 mmol/L
POV reduction ([3]; 23 hours, 250 μL in 25 mL sunflower oil, vs most recent untreated POV): 45.4%
POV, averaged value (in parentheses) ([3]; 46 hours since addition, 250 μL in 25 mL sunflower oil): 5.22 mmol/L
POV ([3]; 46 hours since addition, 250 μL in 25 mL sunflower oil, single measurements): 5.34 mmol/L and 5.10 mmol/L
POV reduction ([3]; 46 hours, 250 μL in 25 mL sunflower oil, vs most recent untreated POV): 53.0%
POV, averaged value (in parentheses) ([3]; 15 days since addition, 250 μL in 25 mL sunflower oil): 2.10 mmol/L
POV ([3]; 15 days since addition, 250 μL in 25 mL sunflower oil, single measurements): 2.27 mmol/L and 2.05 mmol/L and 1.99 mmol/L
POV reduction ([3]; 15 days, 250 μL in 25 mL sunflower oil (0.83% v/v), vs untreated oil): 82.9%

CN(C)CCO.CN(C)CCO.O=C(O)CCC(=O)C(=O)O [AKG DiDeanol]
POV of Treated Perfume ([1]; 60 min, approximately 200 mg (1.0% w/v) in 20 mL model perfume (Example 9)): 5.95 mmol/L
POV of Treated Perfume ([1]; 75 min, 1.0% w/v in 20 mL model perfume (Example 9)): 5.66 mmol/L
POV of Treated Perfume ([1]; 115 min, 1.0% w/v in 20 mL model perfume (Example 9)): 4.96 mmol/L
POV of Treated Perfume ([1]; 195 min, 1.0% w/v in 20 mL model perfume (Example 9)): 3.20 mmol/L
POV of Treated Perfume ([1]; 210 min, 1.0% w/v in 20 mL model perfume (Example 9)): 3.08 mmol/L
POV of Treated Perfume ([1]; 300 min (5 hours), 1.0% w/v in 20 mL model perfume (Example 9)): 2.31 mmol/L
POV of Treated Perfume ([1]; 370 min, 1.0% w/v in 20 mL model perfume (Example 9)): 1.73 mmol/L
POV of Treated Perfume ([1]; 380 min, 1.0% w/v in 20 mL model perfume (Example 9)): 1.72 mmol/L
POV of Treated Perfume ([1]; […] (24 hours), 1.0% w/v in 20 mL model perfume (Example 9), indistinguishable from blank): 0.0 mmol/L

CC[SiH](C)C [DMESi, Dimethylethylsilane]
POV (mmol/L) of treated [1, 11]: 13.2 mmol/L
Reduction in POV (%) [1, 11]: 0.00%
POV (mmol/L) of treated [1, 12]: 9.29 mmol/L
Reduction in POV (%) [1, 12]: 29.62%
POV (mmol/L) of treated [1, 13]: 9.32 mmol/L
Reduction in POV (%) [1, 13]: 33.43%
POV (mmol/L) of treated [1, 14]: 10.53 mmol/L
Reduction in POV (%) [1, 14]: 30.03%
POV (mmol/L) of treated [1, 15]: 13.65 mmol/L
Reduction in POV (%) [1, 15]: 24.38%

CCCCCCCCCCN(C)C.O=C(O)C(=O)c1ccco1 [FAA-DiMeC10A]
POV of Treated Perfume [1, 16]: 5.06 mmol/L
POV of Treated Perfume [1, 17]: 4.89 mmol/L
POV of Treated Perfume [1, 18]: 4.68 mmol/L
reduction in POV relative to untreated material [1]: 40.0%
POV of Treated Perfume [1, 19]: 4.28 mmol/L
POV of treated oil ([3]; 85 minutes since addition): 5.16 mmol/L
% Reduction in POV ([3]; 85 minutes): 68.8%
% Reduction in POV ([3]; 140 minutes): 82.1%
POV of treated oil ([3]; 140 minutes): 2.97 mmol/L
% Reduction in POV ([3]; 1320 mins (22 hrs)): 97.4%
POV of treated oil ([3]; 1320 mins (22 hrs)): 0.43 mmol/L
% Reduction in POV ([3]; 23 days): 100%
POV of treated oil ([3]; 23 days, indistinguishable from BLANK): 0.00 mmol/L

O=CC(=O)O [Glyoxylic Acid]
POV after Treatment ([1]; model citrus perfume, 3 days after addition of treating compound): 3.00 mmol/L
% POV Reduction ([1]; model citrus perfume, 3 days after addition of treating compound, vs untreated sample): 54.6%
POV after Treatment ([1]; model citrus perfume, 10 days after addition of treating compound): 1.61 mmol/L
% POV Reduction ([1]; model citrus perfume, 10 days after addition of treating compound, vs untreated sample): 80.8%

CC1=C(C(=O)N(C)C)CC(C(=O)N(C)C)=C(C)N1 [HDPA, N(3),N(3),N(5),N(5),2,6-Hexamethyl-1,4-Dihydro-3,5-Pyridinedicarboxamide]
Peak Area Treated ([4]; treatment time 1 day): 12723
Peak Area Treated ([4]; treatment time 6 days): 12128
Peak Area Treated ([4]; treatment time 13 days): 10978
Peak Area Treated ([4]; treatment time 20 days): 17089

CCOC(=O)[C@@H](N)CS.Cl [L-Cysteine ethyl ester hydrochloride]
% POV Reduction ([1]; approximately 0.15 g in 15 mL model perfume, 89 minutes after addition): 100%
POV after Treatment ([1]; approximately 0.15 g in 15 mL model perfume, 89 minutes after addition, untreated 5.55 mmol/L): 0.00 mmol/L

COC(=O)[C@H](CS)NC(C)=O [N-acetylcysteine methyl ester]
% POV Reduction [1]: 100%
POV after Treatment [1]: 0.00 mmol/L

C[SiH](C)O[Si](C)(C)C [PMDSi, Pentamethyldisiloxane]
solubility / miscibility in model citrus perfume (in words) ([5]; on addition to hydroalcoholic model citrus perfume): miscible with the perfume

O=C(O)C(=O)c1ccccc1.O=C1NCCN1CCO [PhGA-HEI]
POV of Treated Perfume [1, 16]: 3.51 mmol/L
POV of Treated Perfume [1, 17]: 3.18 mmol/L
POV of Treated Perfume [1, 18]: 3.06 mmol/L
reduction in POV relative to untreated material [1]: 58.8%
POV of Treated Perfume [1, 19]: 2.94 mmol/L

N[C@@H](CCC(=O)N[C@@H](CS)C(=O)NCC(=O)O)C(=O)O [glutathione]
% POV Reduction ([1]; approximately 0.15 g in 15 mL model perfume, 3 days after addition): 100%
POV after Treatment ([1]; approximately 0.15 g in 15 mL model perfume, 3 days after addition, untreated 5.55 mmol/L): 0.00 mmol/L

O=C(O)C(=O)c1ccccc1 [phenylglyoxylic acid]
solubility in autoxidized limonene (in words) ([5]; 200 mg in 20 mL): dissolved
POV [2, 20]: 37.035 mEq/L
POV reduction [2, 20]: 17.3%
POV [2, 21]: 34.086 mEq/L
POV reduction [2, 21]: 23.9%
POV [2, 22]: 29.963 mEq/L
POV reduction [2, 22]: 33.1%
POV [2, 23]: 17.265 mEq/L
POV reduction [2, 23]: 61.5%

O=C(O)C(=O)c1ccco1 [α-Oxo-2-furanacetic acid, α-oxo-2-furanacetic acid]
solubility in mixed citrus oil (in words) ([5]; on addition to mixed citrus oil): The majority of the added α-oxo-2-furanacetic acid did not dissolve

L-Ascorbic acid 2-phosphate sesqui-magnesium salt hydrate [Vc-PSeMg]
POV (mmol/L) of treated ([1]; hydrate): 12.4 mmol/L and 12.32 mmol/L and 12.66 mmol/L and 12.28 mmol/L and 13.26 mmol/L and 15.25 mmol/L and 20.2 mmol/L
